{"source": "patent US20120301433A1", "about": "“BACTERIOPHAGES EXPRESSING AMYLOID PEPTIDES AND USES THEREOF” (priority 2009, published 2012)", "key": {"CsgA [1]": {"biological_target": "T1, CsgA (Escherichia coli, UniProt P28307)", "T1 sequence (P28307 21-151)": "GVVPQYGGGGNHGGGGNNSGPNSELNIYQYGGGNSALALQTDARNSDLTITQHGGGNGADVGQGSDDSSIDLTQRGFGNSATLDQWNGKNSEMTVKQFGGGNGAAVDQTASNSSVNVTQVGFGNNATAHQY", "conditions": "20-residue peptides on array"}, "CsgA [2]": {"biological_target": "T1, CsgA", "conditions": "ThT fluorescence, FIG. 7E"}, "CsgA [3]": {"biological_target": "T1, CsgA", "type": "biochemical", "conditions": "CsgA:inhibitor ratios, FIG. 9"}}, "data": [{"compound": "GTQKTAIVVQRQSQMAIRVT [CsgB130-149]", "values": [{"measurement": "fluorescence of labelled CsgA bound to peptide spot (in words)", "setting": "CsgA [1]", "result": "strongest signal"}, {"measurement": "nucleation of CsgA fiber assembly by plate-bound peptide (in words)", "setting": "CsgA [2]", "result": "facilitated CsgA amyloid fiber formation with first-order kinetics"}]}, {"compound": "COc1ccc(Nc2cc3c(cc2Nc2ccc(OC)cc2)C(=O)NC3=O)cc1", "note": "[DAPH-12]", "values": [{"measurement": "effect of small molecule inhibitors on curli amyloid fiber formation (in words)", "setting": "CsgA [3]", "result": "secetively inhibits Curli assembly"}]}, {"compound": "C[C@@H]1[C@H](O)[C@@H](C)/C=C/C=C/C=C/C=C/C=C/C=C/C=C/[C@H](O[C@@H]2O[C@H](C)[C@@H](O)[C@H](N)[C@@H]2O)C[C@@H]2O[C@](O)(C[C@@H](O)C[C@@H](O)[C@H](O)CC[C@@H](O)C[C@@H](O)CC(=O)O[C@H]1C)C[C@H](O)[C@H]2C(=O)O", "note": "[AmphB, Amphotericin B]", "values": [{"measurement": "effect of small molecule inhibitors on curli amyloid fiber formation (in words)", "setting": "CsgA [3]", "result": "does not inhibit Curli assembly"}]}]}
